Paper PMC8500670, “A selective WDR5 degrader inhibits acute myeloid leukemia in patient-derived mouse models” (Science translational medicine, 2021)

Columns and labels:
Assay in all cases: biochemical
Parameters in all cases: protein methyltransferase inhibition panel, single concentration, duplicate
PRMT6 = PRMT6 (Homo sapiens, UniProt Q96LA8)
Method: (§1) We next assessed selectivity of MS67 against 22 protein methyltransferases (table S2) and a broad panel of common drug targets including 45 kinases (table S3) and 44 G protein–coupled receptors (GPCR), ion channels, and transporters (table S4). […] We subsequently determined that MS67 had moderate binding affinity (Ki = 1.0 ± 0.8 μM) to Sigma 2 receptor (fig. S10).

SETD2 = SETD2 (Homo sapiens, UniProt Q9BYW2)
Method: as §1

SET8 = molecular target: T1, SET8 (Homo sapiens, UniProt Q9NQR1)
T1 construct: gene KMT5A
T1 sequence (Q9NQR1 1-393): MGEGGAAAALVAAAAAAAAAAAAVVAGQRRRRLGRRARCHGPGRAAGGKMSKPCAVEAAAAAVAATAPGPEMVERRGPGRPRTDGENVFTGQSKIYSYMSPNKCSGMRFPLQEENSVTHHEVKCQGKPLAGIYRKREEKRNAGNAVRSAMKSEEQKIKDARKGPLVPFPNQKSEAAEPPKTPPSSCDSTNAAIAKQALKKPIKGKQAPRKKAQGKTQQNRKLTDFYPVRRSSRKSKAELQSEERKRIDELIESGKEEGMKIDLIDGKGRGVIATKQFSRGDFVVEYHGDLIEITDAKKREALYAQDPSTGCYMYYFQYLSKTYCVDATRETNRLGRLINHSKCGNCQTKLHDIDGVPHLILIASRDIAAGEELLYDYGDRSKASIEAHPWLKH
Method: as §1

GLP = molecular target: T2, GLP (Homo sapiens, UniProt Q9H9B1)
T2 construct: gene EHMT1
T2 sequence (Q9H9B1 1-1298): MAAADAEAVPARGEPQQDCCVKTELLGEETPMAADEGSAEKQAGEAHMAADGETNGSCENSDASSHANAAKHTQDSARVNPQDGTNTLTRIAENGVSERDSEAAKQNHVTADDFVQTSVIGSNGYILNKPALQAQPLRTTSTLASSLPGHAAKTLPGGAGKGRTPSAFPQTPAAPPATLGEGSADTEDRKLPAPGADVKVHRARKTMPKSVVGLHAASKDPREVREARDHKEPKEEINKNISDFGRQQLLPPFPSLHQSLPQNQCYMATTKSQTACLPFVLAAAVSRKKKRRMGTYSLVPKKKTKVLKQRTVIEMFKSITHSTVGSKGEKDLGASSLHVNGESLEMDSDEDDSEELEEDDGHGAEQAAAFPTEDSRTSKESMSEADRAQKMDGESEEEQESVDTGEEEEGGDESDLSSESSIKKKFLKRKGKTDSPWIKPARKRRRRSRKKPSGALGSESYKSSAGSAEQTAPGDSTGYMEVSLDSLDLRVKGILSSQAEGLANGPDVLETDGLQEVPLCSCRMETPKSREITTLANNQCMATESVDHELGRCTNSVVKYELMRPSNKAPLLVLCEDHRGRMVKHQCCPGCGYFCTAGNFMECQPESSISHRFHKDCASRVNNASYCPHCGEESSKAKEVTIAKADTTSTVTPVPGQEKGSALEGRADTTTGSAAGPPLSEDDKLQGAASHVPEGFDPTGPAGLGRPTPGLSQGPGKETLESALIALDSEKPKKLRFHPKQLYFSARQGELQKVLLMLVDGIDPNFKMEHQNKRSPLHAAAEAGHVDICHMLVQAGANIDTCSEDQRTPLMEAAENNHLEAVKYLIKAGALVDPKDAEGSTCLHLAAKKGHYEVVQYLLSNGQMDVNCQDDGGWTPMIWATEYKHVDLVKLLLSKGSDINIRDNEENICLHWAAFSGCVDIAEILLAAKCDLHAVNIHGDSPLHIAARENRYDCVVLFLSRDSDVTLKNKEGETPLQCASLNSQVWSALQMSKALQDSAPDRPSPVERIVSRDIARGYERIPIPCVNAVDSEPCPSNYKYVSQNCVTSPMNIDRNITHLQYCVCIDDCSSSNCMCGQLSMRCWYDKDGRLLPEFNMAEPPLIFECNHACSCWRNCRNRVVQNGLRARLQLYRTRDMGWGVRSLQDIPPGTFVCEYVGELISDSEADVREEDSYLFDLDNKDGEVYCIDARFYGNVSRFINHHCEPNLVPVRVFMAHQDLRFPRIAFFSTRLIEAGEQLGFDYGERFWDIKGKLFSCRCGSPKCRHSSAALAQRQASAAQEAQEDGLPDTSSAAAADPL
Method: as §1

SMYD3 = molecular target: T3, SMYD3 (Homo sapiens, UniProt Q9H7B4)
T3 sequence (Q9H7B4 1-428): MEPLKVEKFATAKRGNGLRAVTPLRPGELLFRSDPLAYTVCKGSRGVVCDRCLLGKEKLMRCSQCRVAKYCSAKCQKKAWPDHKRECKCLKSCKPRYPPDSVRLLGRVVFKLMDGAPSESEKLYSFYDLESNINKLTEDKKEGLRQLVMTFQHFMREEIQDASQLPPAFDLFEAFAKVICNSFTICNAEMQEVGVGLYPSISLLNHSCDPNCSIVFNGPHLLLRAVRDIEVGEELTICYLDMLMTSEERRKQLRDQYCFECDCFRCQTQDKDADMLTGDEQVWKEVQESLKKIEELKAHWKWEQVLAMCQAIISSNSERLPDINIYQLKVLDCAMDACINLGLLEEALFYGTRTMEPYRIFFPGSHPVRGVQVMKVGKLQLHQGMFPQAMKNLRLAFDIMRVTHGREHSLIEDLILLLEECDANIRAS
Method: as §1

NSD1 = NSD1 (Homo sapiens, UniProt Q96L73)
Method: as §1

Measured: inhibition at 10 µM

Chain of PRMT6 (Q96LA8 whole entry): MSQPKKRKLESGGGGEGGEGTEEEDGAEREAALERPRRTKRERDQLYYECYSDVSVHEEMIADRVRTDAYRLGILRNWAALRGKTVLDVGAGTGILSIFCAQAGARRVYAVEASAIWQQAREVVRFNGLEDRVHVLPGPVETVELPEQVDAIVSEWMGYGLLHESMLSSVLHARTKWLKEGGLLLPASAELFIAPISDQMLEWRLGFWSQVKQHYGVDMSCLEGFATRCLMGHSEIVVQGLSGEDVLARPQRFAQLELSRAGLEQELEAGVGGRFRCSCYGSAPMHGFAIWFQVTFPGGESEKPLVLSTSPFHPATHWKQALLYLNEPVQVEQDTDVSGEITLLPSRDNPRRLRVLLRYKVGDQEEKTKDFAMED
Chain of NSD1 (Q96L73 whole entry): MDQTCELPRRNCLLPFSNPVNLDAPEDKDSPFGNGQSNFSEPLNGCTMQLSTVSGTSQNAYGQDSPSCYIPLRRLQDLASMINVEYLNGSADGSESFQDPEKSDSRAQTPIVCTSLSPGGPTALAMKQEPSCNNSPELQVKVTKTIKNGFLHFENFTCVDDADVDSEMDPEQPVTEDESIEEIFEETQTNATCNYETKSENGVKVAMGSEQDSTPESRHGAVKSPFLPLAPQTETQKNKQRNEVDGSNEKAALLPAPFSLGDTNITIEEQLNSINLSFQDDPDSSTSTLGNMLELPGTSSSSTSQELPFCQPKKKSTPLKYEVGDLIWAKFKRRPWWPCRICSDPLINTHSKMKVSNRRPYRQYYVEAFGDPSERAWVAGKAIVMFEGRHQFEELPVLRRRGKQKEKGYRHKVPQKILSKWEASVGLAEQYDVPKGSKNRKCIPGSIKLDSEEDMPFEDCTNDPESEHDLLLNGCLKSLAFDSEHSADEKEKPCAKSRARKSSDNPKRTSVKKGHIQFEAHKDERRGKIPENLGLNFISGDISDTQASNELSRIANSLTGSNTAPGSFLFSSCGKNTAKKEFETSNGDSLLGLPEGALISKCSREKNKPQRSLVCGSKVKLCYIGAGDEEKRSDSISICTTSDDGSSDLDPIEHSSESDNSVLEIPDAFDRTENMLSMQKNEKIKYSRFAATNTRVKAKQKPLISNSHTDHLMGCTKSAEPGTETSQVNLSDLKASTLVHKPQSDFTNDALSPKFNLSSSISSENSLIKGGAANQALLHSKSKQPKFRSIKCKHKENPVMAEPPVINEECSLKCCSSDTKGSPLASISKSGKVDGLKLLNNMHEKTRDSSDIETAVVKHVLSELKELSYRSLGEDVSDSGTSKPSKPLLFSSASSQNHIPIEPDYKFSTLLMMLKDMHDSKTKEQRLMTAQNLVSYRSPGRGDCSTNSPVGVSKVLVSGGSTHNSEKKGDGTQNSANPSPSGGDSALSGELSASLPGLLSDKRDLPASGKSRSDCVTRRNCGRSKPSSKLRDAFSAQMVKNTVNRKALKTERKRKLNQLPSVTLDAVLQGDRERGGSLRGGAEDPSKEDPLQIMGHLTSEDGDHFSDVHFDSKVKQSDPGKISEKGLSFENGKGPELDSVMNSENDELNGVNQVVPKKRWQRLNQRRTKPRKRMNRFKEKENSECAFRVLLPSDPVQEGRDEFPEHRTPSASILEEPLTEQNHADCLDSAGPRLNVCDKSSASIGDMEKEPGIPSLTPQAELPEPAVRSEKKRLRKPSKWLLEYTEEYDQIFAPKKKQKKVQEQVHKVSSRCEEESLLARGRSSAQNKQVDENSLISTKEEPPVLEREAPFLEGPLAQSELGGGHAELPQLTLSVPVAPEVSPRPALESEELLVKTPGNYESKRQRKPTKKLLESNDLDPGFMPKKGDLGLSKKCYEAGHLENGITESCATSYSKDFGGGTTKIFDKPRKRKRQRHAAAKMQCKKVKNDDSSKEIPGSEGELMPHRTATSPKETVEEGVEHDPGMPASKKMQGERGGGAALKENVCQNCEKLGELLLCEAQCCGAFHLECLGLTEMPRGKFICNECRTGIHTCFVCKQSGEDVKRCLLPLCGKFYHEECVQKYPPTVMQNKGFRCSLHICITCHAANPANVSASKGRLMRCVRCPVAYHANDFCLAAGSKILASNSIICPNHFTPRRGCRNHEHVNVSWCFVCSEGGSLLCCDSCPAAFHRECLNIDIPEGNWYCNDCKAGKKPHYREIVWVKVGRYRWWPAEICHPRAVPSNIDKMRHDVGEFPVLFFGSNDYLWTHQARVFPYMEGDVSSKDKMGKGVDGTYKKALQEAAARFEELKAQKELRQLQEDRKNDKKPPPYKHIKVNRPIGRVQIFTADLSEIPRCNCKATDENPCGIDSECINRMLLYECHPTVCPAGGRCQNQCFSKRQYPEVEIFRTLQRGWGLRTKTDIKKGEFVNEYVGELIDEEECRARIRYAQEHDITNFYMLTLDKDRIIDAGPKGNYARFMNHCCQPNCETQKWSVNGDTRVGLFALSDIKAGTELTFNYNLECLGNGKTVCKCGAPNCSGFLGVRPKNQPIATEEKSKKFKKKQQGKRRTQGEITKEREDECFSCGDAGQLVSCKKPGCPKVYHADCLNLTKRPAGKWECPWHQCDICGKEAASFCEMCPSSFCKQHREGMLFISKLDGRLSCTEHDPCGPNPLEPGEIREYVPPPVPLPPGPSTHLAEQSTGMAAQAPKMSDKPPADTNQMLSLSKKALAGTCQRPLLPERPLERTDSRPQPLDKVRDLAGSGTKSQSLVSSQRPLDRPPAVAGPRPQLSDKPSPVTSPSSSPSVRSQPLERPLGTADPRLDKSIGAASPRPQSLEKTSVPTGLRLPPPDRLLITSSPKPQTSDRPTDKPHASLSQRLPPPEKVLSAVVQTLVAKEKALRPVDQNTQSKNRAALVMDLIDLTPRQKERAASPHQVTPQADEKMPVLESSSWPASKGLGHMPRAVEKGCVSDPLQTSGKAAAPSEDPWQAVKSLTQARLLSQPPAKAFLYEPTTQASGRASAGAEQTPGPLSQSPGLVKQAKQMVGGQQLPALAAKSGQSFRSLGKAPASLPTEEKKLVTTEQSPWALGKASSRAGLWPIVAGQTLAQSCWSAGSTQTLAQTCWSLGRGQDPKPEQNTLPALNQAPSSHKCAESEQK

Cc1ncsc1-c1ccc([C@H](C)NC(=O)[C@@H]2C[C@@H](O)CN2C(=O)[C@@H](NC(=O)CNC(=O)c2ccc(F)c(-c3ccc(N4C[C@@H](C)N(C)[C@@H](C)C4)c(NC(=O)c4c[nH]c(=O)cc4C(F)(F)F)c3)c2)C(C)(C)C)cc1 [MS67]
< 10%: all assays above
